Experimental data taken from patent US20220175768A1, “FGFR TYROSINE KINASE INHIBITORS FOR THE TREATMENT OF UROTHELIAL CARCINOMA” (Janssen Pharmaceutica NV, priority 2019, published 2022).

[1] = 6 mg continuous, regimen 2 (n = 78)
[2] = 8 mg continuous, Regimen 3 (n = 99)
[3] = 8 mg continuous, selected regimen 3 (n = 99)

Compound: COc1cc(OC)cc(N(CCNC(C)C)c2ccc3ncc(-c4cnn(C)c4)nc3c2)c1 [erdafitinib, N-(3,5-dimethoxy-phenyl)-N′-(1-methylethyl)-N-[3-(1-methyl-1H-pyrazol-4-yl)quinoxalin-6-yl]ethane-1,2-diamine]
- Treatment-related adverse event: Asthenia, Any grade [1]: 11 (14) no. (%)
- Treatment-related adverse event: Asthenia, Grade 1 [1]: 3 (4) no. (%)
- Treatment-related adverse event: Asthenia, Grade 2 [1]: 4 (5) no. (%)
- Treatment-related adverse event: Asthenia, Grade ≥3 [1]: 4 (5) no. (%)
- Treatment-related adverse event: Conjunctivitis, Any grade [1]: 2 (3) no. (%)
- Treatment-related adverse event: Conjunctivitis, Grade 1 [1]: 2 (3) no. (%)
- Treatment-related adverse event: Conjunctivitis, Grade 2 [1]: 0 no. (%)
- Treatment-related adverse event: Conjunctivitis, Grade ≥3 [1]: 0 no. (%)
- Treatment-related adverse event: Decreased appetite, Any grade [1]: 18 (23) no. (%)
- Treatment-related adverse event: Decreased appetite, Grade 1 [1]: 7 (9) no. (%)
- Treatment-related adverse event: Decreased appetite, Grade 2 [1]: 9 (12) no. (%)
- Treatment-related adverse event: Decreased appetite, Grade ≥3 [1]: 2 (3) no. (%)
- Treatment-related adverse event: Diarrhea, Any grade [1]: 29 (37) no. (%)
- Treatment-related adverse event: Diarrhea, Grade 1 [1]: 16 (21) no. (%)
- Treatment-related adverse event: Diarrhea, Grade 2 [1]: 13 (17) no. (%)
- Treatment-related adverse event: Diarrhea, Grade ≥3 [1]: 0 no. (%)
- Treatment-related adverse event: Dry mouth, Any grade [1]: 31 (40) no. (%)
- Treatment-related adverse event: Dry mouth, Grade 1 [1]: 23 (30) no. (%)
- Treatment-related adverse event: Dry mouth, Grade 2 [1]: 6 (8) no. (%)
- Treatment-related adverse event: Dry mouth, Grade ≥3 [1]: 2 (3) no. (%)
- Treatment-related adverse event: Dry skin, Any grade [1]: 16 (21) no. (%)
- Treatment-related adverse event: Dry skin, Grade 1 [1]: 8 (10) no. (%)
- Treatment-related adverse event: Dry skin, Grade 2 [1]: 8 (10) no. (%)
- Treatment-related adverse event: Dry skin, Grade ≥3 [1]: 0 no. (%)
- Treatment-related adverse event: Dysgeusia, Any grade [1]: 10 (13) no. (%)
- Treatment-related adverse event: Dysgeusia, Grade 1 [1]: 6 (8) no. (%)
- Treatment-related adverse event: Dysgeusia, Grade 2 [1]: 4 (5) no. (%)
- Treatment-related adverse event: Dysgeusia, Grade ≥3 [1]: 0 no. (%)
- Treatment-related adverse event: Fatigue, Any grade [1]: 12 (15) no. (%)
- Treatment-related adverse event: Fatigue, Grade 1 [1]: 5 (6) no. (%)
- Treatment-related adverse event: Fatigue, Grade 2 [1]: 6 (8) no. (%)
- Treatment-related adverse event: Fatigue, Grade ≥3 [1]: 1 (1) no. (%)
- Treatment-related adverse event: Hand-foot syndrome, Any grade [1]: 12 (15) no. (%)
- Treatment-related adverse event: Hand-foot syndrome, Grade 1 [1]: 4 (5) no. (%)
- Treatment-related adverse event: Hand-foot syndrome, Grade 2 [1]: 8 (10) no. (%)
- Treatment-related adverse event: Hand-foot syndrome, Grade ≥3 [1]: 0 no. (%)
- Treatment-related adverse event: Hyperphosphatemia, Any grade [1]: 49 (63) no. (%)
- Treatment-related adverse event: Hyperphosphatemia, Grade 1 [1]: 41 (53) no. (%)
- Treatment-related adverse event: Hyperphosphatemia, Grade 2 [1]: 8 (10) no. (%)
- Treatment-related adverse event: Hyperphosphatemia, Grade ≥3 [1]: 0 no. (%)
- Treatment-related adverse event: Lacrimation increased, Any grade [1]: 12 (15) no. (%)
- Treatment-related adverse event: Lacrimation increased, Grade 1 [1]: 9 (12) no. (%)
- Treatment-related adverse event: Lacrimation increased, Grade 2 [1]: 3 (4) no. (%)
- Treatment-related adverse event: Lacrimation increased, Grade ≥3 [1]: 0 no. (%)
- Treatment-related adverse event: Nausea, Any grade [1]: 6 (8) no. (%)
- Treatment-related adverse event: Nausea, Grade 1 [1]: 4 (5) no. (%)
- Treatment-related adverse event: Nausea, Grade 2 [1]: 2 (3) no. (%)
- Treatment-related adverse event: Nausea, Grade ≥3 [1]: 0 no. (%)
- Treatment-related adverse event: Onycholysis, Any grade [1]: 13 (17) no. (%)
- Treatment-related adverse event: Onycholysis, Grade 1 [1]: 2 (3) no. (%)
- Treatment-related adverse event: Onycholysis, Grade 2 [1]: 6 (8) no. (%)
- Treatment-related adverse event: Onycholysis, Grade ≥3 [1]: 5 (6) no. (%)
- Treatment-related adverse event: Onychomadesis, Any grade [1]: 8 (10) no. (%)
- Treatment-related adverse event: Onychomadesis, Grade 1 [1]: 2 (3) no. (%)
- Treatment-related adverse event: Onychomadesis, Grade 2 [1]: 6 (8) no. (%)
- Treatment-related adverse event: Onychomadesis, Grade ≥3 [1]: 0 no. (%)
- Treatment-related adverse event: Paronychia, Any grade [1]: 11 (14) no. (%)
- Treatment-related adverse event: Paronychia, Grade 1 [1]: 1 (1) no. (%)
- Treatment-related adverse event: Paronychia, Grade 2 [1]: 10 (13) no. (%)
- Treatment-related adverse event: Paronychia, Grade ≥3 [1]: 0 no. (%)
- Treatment-related adverse event: Retinal detachment, Any grade [1]: 8 (10) no. (%)
- Treatment-related adverse event: Retinal detachment, Grade 1 [1]: 5 (6) no. (%)
- Treatment-related adverse event: Retinal detachment, Grade 2 [1]: 3 (4) no. (%)
- Treatment-related adverse event: Retinal detachment, Grade ≥3 [1]: 0 no. (%)
- Treatment-related adverse event: Stomatitis, Any grade [1]: 33 (42) no. (%)
- Treatment-related adverse event: Stomatitis, Grade 1 [1]: 13 (17) no. (%)
- Treatment-related adverse event: Stomatitis, Grade 2 [1]: 13 (17) no. (%)
- Treatment-related adverse event: Stomatitis, Grade ≥3 [1]: 7 (9) no. (%)
- Treatment-related adverse event: Vision blurred, Any grade [1]: 5 (6) no. (%)
- Treatment-related adverse event: Vision blurred, Grade 1 [1]: 3 (4) no. (%)
- Treatment-related adverse event: Vision blurred, Grade 2 [1]: 1 (1) no. (%)
- Treatment-related adverse event: Vision blurred, Grade ≥3 [1]: 1 (1) no. (%)
- Treatment-related adverse event: Alopecia, Grade 3 (8 mg continuous (n = 99)): 0 no.
- Treatment-related adverse event: Decreased appetite, Grade 3 (8 mg continuous (n = 99)): 0 no.
- Treatment-related adverse event: Dry mouth, Grade 3 (8 mg continuous (n = 99)): 0 no.
- Treatment-related adverse event: Dry skin, Grade 3 (8 mg continuous (n = 99)): 0 no.
- Treatment-related adverse event: Lacrimation increased, Grade 3 (8 mg continuous (n = 99)): 0 no.
- Treatment-related adverse event: Vision blurred, Grade 3 (8 mg continuous (n = 99)): 0 no.
- Treatment-related adverse event: Weight decreased, Grade 3 (8 mg continuous (n = 99)): 0 no.
- Treatment-related adverse event of special interest or clinical importance: Arrhythmia-related events, Any grade [2]: 0 no.
- Treatment-related adverse event of special interest or clinical importance: Arrhythmia-related events, Grade ≥3 [2]: 0 no.
- Patients with Abdominal pain, Any grade [3]: 8 (8) no. (%)
- Patients with Abdominal pain, Grade 1 [3]: 5 (5) no. (%)
- Patients with Abdominal pain, Grade 2 [3]: 2 (2) no. (%)
- Patients with Abdominal pain, Grade ≥3 [3]: 1 (1) no. (%)
- Patients with Alanine aminotransferase increased, Any grade [3]: 17 (17) no. (%)
- Patients with Alanine aminotransferase increased, Grade 1 [3]: 13 (13) no. (%)
- Patients with Alanine aminotransferase increased, Grade 2 [3]: 2 (2) no. (%)
- Patients with Alanine aminotransferase increased, Grade ≥3 [3]: 2 (2) no. (%)
- Patients with Alopecia, Any grade [3]: 29 (29) no. (%)
- Patients with Alopecia, Grade 1 [3]: 23 (23) no. (%)
- Patients with Alopecia, Grade 2 [3]: 6 (6) no. (%)
- Patients with Alopecia, Grade ≥3 [3]: 0 no. (%)
- Patients with Anemia, Any grade [3]: 20 (20) no. (%)
- Patients with Anemia, Grade 1 [3]: 9 (9) no. (%)
- Patients with Anemia, Grade 2 [3]: 7 (7) no. (%)
- Patients with Anemia, Grade ≥3 [3]: 4 (4) no. (%)
- Patients with Arthralgia, Any grade [3]: 8 (8) no. (%)
- Patients with Arthralgia, Grade 1 [3]: 5 (5) no. (%)
- Patients with Arthralgia, Grade 2 [3]: 3 (3) no. (%)
- Patients with Arthralgia, Grade ≥3 [3]: 0 no. (%)
- Patients with Aspartate aminotransferase increased, Any grade [3]: 10 (10) no. (%)
- Patients with Aspartate aminotransferase increased, Grade 1 [3]: 8 (8) no. (%)
- Patients with Aspartate aminotransferase increased, Grade 2 [3]: 2 (2) no. (%)
- Patients with Aspartate aminotransferase increased, Grade ≥3 [3]: 0 no. (%)
- Patients with Asthenia, Any grade [3]: 20 (20) no. (%)
- Patients with Asthenia, Grade 1 [3]: 2 (2) no. (%)
- Patients with Asthenia, Grade 2 [3]: 11 (11) no. (%)
- Patients with Asthenia, Grade ≥3 [3]: 7 (7) no. (%)
- Patients with Back pain, Any grade [3]: 5 (5) no. (%)
- Patients with Back pain, Grade 1 [3]: 4 (4) no. (%)
- Patients with Back pain, Grade 2 [3]: 1 (1) no. (%)
- Patients with Back pain, Grade ≥3 [3]: 0 no. (%)
- Patients with Blood creatinine increased, Any grade [3]: 10 (10) no. (%)
- Patients with Blood creatinine increased, Grade 1 [3]: 5 (5) no. (%)
- Patients with Blood creatinine increased, Grade 2 [3]: 5 (5) no. (%)
- Patients with Blood creatinine increased, Grade ≥3 [3]: 0 no. (%)
- Patients with Conjunctivitis, Any grade [3]: 13 (13) no. (%)
- Patients with Conjunctivitis, Grade 1 [3]: 6 (6) no. (%)
- Patients with Conjunctivitis, Grade 2 [3]: 7 (7) no. (%)
- Patients with Conjunctivitis, Grade ≥3 [3]: 0 no. (%)
- Patients with Constipation, Any grade [3]: 28 (28) no. (%)
- Patients with Constipation, Grade 1 [3]: 19 (19) no. (%)
- Patients with Constipation, Grade 2 [3]: 8 (8) no. (%)
- Patients with Constipation, Grade ≥3 [3]: 1 (1) no. (%)
- Patients with Decreased appetite, Any grade [3]: 38 (38) no. (%)
- Patients with Decreased appetite, Grade 1 [3]: 18 (18) no. (%)
- Patients with Decreased appetite, Grade 2 [3]: 20 (20) no. (%)
- Patients with Decreased appetite, Grade ≥3 [3]: 0 no. (%)
- Patients with Diarrhea, Any grade [3]: 50 (51) no. (%)
- Patients with Diarrhea, Grade 1 [3]: 31 (31) no. (%)
- Patients with Diarrhea, Grade 2 [3]: 15 (15) no. (%)
- Patients with Diarrhea, Grade ≥3 [3]: 4 (4) no. (%)
- Patients with Dry eye, Any grade [3]: 19 (19) no. (%)
- Patients with Dry eye, Grade 1 [3]: 14 (14) no. (%)
- Patients with Dry eye, Grade 2 [3]: 4 (4) no. (%)
- Patients with Dry eye, Grade ≥3 [3]: 1 (1) no. (%)
- Patients with Dry mouth, Any grade [3]: 45 (46) no. (%)
- Patients with Dry mouth, Grade 1 [3]: 34 (34) no. (%)
- Patients with Dry mouth, Grade 2 [3]: 11 (11) no. (%)
- Patients with Dry mouth, Grade ≥3 [3]: 0 no. (%)
- Patients with Dry skin, Any grade [3]: 32 (32) no. (%)
- Patients with Dry skin, Grade 1 [3]: 24 (24) no. (%)
- Patients with Dry skin, Grade 2 [3]: 8 (8) no. (%)
- Patients with Dry skin, Grade ≥3 [3]: 0 no. (%)
- Patients with Dysgeusia, Any grade [3]: 37 (37) no. (%)
- Patients with Dysgeusia, Grade 1 [3]: 23 (23) no. (%)
- Patients with Dysgeusia, Grade 2 [3]: 13 (13) no. (%)
- Patients with Dysgeusia, Grade ≥3 [3]: 1 (1) no. (%)
- Patients with Dyspepsia, Any grade [3]: 11 (11) no. (%)
- Patients with Dyspepsia, Grade 1 [3]: 10 (10) no. (%)
- Patients with Dyspepsia, Grade 2 [3]: 1 (1) no. (%)
- Patients with Dyspepsia, Grade ≥3 [3]: 0 no. (%)
- Patients with Dyspnea, Any grade [3]: 8 (8) no. (%)
- Patients with Dyspnea, Grade 1 [3]: 4 (4) no. (%)
- Patients with Dyspnea, Grade 2 [3]: 2 (2) no. (%)
- Patients with Dyspnea, Grade ≥3 [3]: 2 (2) no. (%)
- Patients with Fatigue, Any grade [3]: 32 (32) no. (%)
- Patients with Fatigue, Grade 1 [3]: 12 (12) no. (%)
- Patients with Fatigue, Grade 2 [3]: 18 (18) no. (%)
- Patients with Fatigue, Grade ≥3 [3]: 2 (2) no. (%)
- Patients with Hand-foot syndrome, Any grade [3]: 23 (23) no. (%)
- Patients with Hand-foot syndrome, Grade 1 [3]: 6 (6) no. (%)
- Patients with Hand-foot syndrome, Grade 2 [3]: 12 (12) no. (%)
- Patients with Hand-foot syndrome, Grade ≥3 [3]: 5 (5) no. (%)
- Patients with Hematuria, Any grade [3]: 10 (10) no. (%)
- Patients with Hematuria, Grade 1 [3]: 7 (7) no. (%)
- Patients with Hematuria, Grade 2 [3]: 1 (1) no. (%)
- Patients with Hematuria, Grade ≥3 [3]: 2 (2) no. (%)
- Patients with Hyperphosphatemia, Any grade [3]: 76 (77) no. (%)
- Patients with Hyperphosphatemia, Grade 1 [3]: 53 (54) no. (%)
- Patients with Hyperphosphatemia, Grade 2 [3]: 21 (21) no. (%)
